This note sets out measurements from ChEMBL document CHEMBL1782028, “Evaluation of structurally diverse neuronal nicotinic receptor ligands for selectivity at the alpha6( *) subtype” (Bioorg Med Chem Lett, 2009).

SMILES strings stand for the structures.

The nature of assay [1]: Selectivity ratio, ratio of EC50 for alpha3beta4* nAChR in mouse to EC50 for alpha6beta2*nAChR in mouse.
Assay [2] can be described thus: Selectivity ratio, ratio of EC50 for alpha3beta4* nAChR in mouse to EC50 for alpha4beta2*nAChR in mouse.
Assay [3] deals with Nicotinic acetylcholine receptor alpha-4/beta-2 (Mus musculus) (UniProt Q9ERK7+Q8R493). Kind of assay: Activity at alpha4beta2*nAChR in mouse striatal synaptosomes assessed as alpha-conotoxic MII-resistant DA release relative to control. It counts as subcellular. The following applies: Brain.
For assay [4], the target named is T1, Neuronal acetylcholine receptor subunit alpha-3/beta-4 (Mus musculus, UniProt Q8R493+Q8R4G9). Kind of assay: Activity at alpha3beta4* nAChR in mouse interpeduncular nucleus assessed as [3H]ACh release by scintillation counting relative to control. It counts as tissue-based.
Assay [5] concerns the target Neuronal acetylcholine receptor subunit alpha-4/alpha-6/beta-2/beta-3 (Mus musculus) (UniProt Q9ERK7+O70174+Q9R0W9+Q8BMN3). The assay can be described thus: Activity at alpha6alpha4beta3beta2 nAChR in mouse striatal synaptosomes assessed as alpha-conotoxic […] DA release relative to control. It counts as subcellular. The following applies: Brain.
Assay [6] addresses Neuronal acetylcholine receptor subunit alpha-7 (Mus musculus, UniProt P49582). Kind of assay: Displacement of [125I]alpha-bungarotoxin from alpha7 nAChR in C57BL/6J mouse hippocampal membrane. In kind it is tissue-based, Hippocampus.
For assay [7], the target named is T2, Neuronal acetylcholine receptor subunit alpha-6/beta-2 (Mus musculus, UniProt Q9ERK7+Q9R0W9). The assay can be described thus: Displacement of [125I]-alpha-Conotoxin MII from alpha6beta2* nAChR in mouse olfactory tubercles, striatum and superior coliculus. In kind it is tissue-based, Olfactory tubercle.
For assay [8], the target named is Neuronal acetylcholine receptor subunit alpha-4/alpha-6/beta-2/beta-3 (Mus musculus, UniProt O70174+Q8BMN3+Q9ERK7+Q9R0W9). The assay can be described thus: (§1) Activity at alpha6alpha4beta3beta2 nAChR in mouse striatal synaptosomes assessed as alpha-conotoxic […] DA release. In kind it is subcellular, Brain.
Assay [9] deals with T3, Nicotinic acetylcholine receptor alpha-4/beta-2 (Mus musculus, UniProt Q8R493+Q9ERK7). Kind of assay: Activity at alpha4beta2*nAChR in mouse striatal synaptosomes assessed as alpha-conotoxic MII-resistant DA release. It counts as subcellular, Brain.
Assay [10] has as its target T1, Neuronal acetylcholine receptor subunit alpha-3/beta-4. The assay can be described thus: Activity at alpha3beta4* nAChR in mouse interpeduncular nucleus assessed as [3H]ACh release by scintillation counting. In kind it is tissue-based.
Assay [11] has as its target T3, Nicotinic acetylcholine receptor alpha-4/beta-2. Kind of assay: Displacement of [125I]epibatidine from alpha4beta2* nAChR in C57BL/6J mouse cortical membrane by gamma counting. It counts as cell membranes.
Assay [12] can be described thus: Selectivity ratio, ratio of EC50 for alpha3beta4* nAChR in mouse to Ki for alpha6beta2*nAChR in mouse.
Assay [13] concerns the target T2, Neuronal acetylcholine receptor subunit alpha-6/beta-2. The assay can be described thus: Inhibition of mouse alpha6alpha4beta3beta2 nAChR. In kind it is protein-complex assay.
A short description of assay [14]: Selectivity ratio, ratio of EC50 for alpha3beta4* nAChR in mouse to Ki for alpha4beta2*nAChR in mouse.
For assay [15], the target named is Neuronal acetylcholine receptor subunit alpha-4/alpha-6/beta-2/beta-3 (Mus musculus, UniProt Q9ERK7+O70174+Q9R0W9+Q8BMN3). The description is as §1. In kind it is subcellular, Brain.

T1 sequence (Q8R493 whole entry): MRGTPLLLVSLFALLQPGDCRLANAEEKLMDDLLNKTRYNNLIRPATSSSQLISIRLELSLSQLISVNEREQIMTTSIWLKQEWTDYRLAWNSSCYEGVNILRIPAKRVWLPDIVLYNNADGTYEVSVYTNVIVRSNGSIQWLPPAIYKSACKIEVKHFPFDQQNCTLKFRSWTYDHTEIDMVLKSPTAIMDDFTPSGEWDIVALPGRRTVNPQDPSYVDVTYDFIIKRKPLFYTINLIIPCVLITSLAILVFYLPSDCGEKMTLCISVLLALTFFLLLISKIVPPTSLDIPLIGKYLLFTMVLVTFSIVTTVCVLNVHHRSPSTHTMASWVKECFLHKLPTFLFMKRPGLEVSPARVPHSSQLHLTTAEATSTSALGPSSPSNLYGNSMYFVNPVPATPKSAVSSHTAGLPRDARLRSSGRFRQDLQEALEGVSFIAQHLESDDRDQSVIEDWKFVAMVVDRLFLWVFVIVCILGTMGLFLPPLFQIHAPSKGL
T1 sequence (Q8R4G9 whole entry): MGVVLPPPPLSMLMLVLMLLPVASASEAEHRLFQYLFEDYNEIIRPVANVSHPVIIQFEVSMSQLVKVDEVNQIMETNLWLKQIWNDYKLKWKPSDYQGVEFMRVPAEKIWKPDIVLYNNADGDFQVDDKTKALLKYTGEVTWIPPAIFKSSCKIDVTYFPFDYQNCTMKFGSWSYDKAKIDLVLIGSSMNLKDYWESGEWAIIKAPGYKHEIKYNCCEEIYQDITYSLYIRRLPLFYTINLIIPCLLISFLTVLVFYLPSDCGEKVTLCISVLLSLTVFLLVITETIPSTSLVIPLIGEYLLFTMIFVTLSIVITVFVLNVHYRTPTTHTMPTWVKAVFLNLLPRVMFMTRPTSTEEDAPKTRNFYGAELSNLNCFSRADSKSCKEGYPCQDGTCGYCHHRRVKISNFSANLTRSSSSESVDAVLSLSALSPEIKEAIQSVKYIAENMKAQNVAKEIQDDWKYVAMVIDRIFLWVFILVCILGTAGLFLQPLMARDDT
Chain of Neuronal acetylcholine receptor subunit alpha-4/alpha-6/beta-2/beta-3 (Mus musculus) (O70174 31-629 partner limits assumed): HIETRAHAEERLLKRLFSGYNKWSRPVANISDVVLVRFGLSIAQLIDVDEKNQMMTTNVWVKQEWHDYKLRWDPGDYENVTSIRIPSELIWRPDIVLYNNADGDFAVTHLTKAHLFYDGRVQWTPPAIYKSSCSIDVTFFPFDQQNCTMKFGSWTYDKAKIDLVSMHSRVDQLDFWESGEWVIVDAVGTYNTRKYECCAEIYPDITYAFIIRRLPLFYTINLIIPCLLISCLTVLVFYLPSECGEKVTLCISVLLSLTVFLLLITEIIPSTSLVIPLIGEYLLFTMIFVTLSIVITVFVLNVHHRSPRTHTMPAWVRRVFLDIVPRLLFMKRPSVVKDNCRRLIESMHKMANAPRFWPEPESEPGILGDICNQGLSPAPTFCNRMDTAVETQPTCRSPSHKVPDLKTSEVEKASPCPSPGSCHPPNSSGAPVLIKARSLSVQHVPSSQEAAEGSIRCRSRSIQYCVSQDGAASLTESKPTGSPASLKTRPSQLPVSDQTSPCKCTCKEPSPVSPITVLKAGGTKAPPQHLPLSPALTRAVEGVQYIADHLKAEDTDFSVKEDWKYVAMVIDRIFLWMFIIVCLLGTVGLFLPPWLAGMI
Chain of Neuronal acetylcholine receptor subunit alpha-4/alpha-6/beta-2/beta-3 (Mus musculus) (Q8BMN3 31-464 partner limits assumed): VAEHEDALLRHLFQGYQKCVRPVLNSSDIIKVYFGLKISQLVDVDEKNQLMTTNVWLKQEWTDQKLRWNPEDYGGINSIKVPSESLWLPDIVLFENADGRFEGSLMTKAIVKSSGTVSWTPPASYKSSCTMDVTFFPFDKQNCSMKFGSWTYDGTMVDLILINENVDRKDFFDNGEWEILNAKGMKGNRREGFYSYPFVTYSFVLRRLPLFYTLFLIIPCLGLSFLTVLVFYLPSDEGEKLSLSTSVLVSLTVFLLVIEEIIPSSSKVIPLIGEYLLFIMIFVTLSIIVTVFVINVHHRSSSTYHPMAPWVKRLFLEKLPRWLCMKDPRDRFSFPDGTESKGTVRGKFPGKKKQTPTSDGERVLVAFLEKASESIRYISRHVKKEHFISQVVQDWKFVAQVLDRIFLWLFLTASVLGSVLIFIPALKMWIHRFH
Chain of Neuronal acetylcholine receptor subunit alpha-4/alpha-6/beta-2/beta-3 (Mus musculus) (Q9ERK7 26-501 limits assumed): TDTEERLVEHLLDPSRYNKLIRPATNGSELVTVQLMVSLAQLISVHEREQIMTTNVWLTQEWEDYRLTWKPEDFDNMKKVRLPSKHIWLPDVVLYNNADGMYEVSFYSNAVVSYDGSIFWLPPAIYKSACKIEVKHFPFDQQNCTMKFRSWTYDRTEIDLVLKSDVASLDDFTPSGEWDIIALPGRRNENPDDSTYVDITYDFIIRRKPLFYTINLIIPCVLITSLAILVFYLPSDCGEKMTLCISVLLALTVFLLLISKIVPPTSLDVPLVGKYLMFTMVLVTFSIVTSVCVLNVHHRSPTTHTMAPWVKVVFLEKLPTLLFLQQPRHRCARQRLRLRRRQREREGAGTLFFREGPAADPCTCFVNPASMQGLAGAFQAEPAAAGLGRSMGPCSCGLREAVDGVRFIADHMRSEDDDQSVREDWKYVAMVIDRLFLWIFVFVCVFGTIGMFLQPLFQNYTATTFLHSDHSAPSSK
Chain of Neuronal acetylcholine receptor subunit alpha-4/alpha-6/beta-2/beta-3 (Mus musculus) (Q9R0W9 31-494 partner limits assumed): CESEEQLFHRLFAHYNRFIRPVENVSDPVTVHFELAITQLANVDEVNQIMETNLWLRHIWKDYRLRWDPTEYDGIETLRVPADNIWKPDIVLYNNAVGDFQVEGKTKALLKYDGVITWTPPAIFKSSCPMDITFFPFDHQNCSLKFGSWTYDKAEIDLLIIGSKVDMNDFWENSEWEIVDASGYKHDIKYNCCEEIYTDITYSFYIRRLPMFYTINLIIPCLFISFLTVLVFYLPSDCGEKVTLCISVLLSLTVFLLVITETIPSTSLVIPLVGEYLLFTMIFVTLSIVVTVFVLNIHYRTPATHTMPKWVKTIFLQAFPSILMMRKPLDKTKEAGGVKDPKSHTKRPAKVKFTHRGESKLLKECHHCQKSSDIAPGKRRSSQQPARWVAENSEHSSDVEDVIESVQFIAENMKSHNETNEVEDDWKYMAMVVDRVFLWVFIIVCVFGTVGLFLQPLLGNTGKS
Chain of Neuronal acetylcholine receptor subunit alpha-7 (P49582 whole entry): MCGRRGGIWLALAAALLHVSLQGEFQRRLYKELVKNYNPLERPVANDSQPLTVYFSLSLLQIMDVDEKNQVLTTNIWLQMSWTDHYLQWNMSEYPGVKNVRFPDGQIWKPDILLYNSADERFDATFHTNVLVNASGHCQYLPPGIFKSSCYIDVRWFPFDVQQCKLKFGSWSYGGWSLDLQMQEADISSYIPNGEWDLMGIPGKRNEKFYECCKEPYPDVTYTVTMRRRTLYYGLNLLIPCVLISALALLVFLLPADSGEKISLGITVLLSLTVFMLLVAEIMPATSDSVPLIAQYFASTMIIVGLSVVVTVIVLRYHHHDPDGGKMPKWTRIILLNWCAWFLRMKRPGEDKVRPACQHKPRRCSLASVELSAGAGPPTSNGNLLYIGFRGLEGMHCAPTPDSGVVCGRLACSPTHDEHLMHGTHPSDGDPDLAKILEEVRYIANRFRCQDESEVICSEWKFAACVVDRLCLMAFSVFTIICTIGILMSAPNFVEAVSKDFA
T2 sequence (Q9ERK7 whole entry): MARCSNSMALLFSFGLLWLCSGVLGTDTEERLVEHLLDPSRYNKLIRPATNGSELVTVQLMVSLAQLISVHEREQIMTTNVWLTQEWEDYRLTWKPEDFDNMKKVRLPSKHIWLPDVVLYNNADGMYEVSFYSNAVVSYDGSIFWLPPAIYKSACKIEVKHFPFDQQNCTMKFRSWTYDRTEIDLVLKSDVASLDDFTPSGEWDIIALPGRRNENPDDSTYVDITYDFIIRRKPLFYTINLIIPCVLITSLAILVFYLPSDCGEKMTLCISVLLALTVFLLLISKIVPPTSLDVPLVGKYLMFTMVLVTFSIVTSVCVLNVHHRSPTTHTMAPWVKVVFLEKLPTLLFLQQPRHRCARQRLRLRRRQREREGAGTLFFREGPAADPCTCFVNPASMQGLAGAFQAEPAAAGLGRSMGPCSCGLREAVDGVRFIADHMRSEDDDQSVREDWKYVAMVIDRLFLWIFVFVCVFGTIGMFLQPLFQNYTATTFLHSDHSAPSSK
T2 sequence (Q9R0W9 whole entry): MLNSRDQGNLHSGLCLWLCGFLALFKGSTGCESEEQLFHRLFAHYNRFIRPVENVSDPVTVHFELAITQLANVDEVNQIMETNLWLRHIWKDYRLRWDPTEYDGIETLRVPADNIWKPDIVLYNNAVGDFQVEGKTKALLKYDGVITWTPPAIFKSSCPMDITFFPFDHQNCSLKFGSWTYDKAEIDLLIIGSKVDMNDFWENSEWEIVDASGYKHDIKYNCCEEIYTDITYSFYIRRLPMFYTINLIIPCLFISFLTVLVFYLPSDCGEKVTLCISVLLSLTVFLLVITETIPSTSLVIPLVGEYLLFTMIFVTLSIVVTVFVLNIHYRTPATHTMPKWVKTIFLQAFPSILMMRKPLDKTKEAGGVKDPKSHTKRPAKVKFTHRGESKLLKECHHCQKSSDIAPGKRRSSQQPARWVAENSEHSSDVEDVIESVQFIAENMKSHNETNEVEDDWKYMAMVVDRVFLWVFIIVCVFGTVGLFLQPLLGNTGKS
T3 sequence (Q9ERK7 whole entry): as the sequence (Q9ERK7 whole entry) above
T3 sequence (Q8R493 whole entry): as the sequence (Q8R493 whole entry) above

For `C(#C[C@H]1CCCN1)c1cncnc1.O=C(O)[C@@H](O)[C@H](O)[C@H](O)[C@@H](O)C(=O)O`, the results for the “Ratio EC50” value in [1] and in [2] were 28 and 10.6, respectively.

As for `C(=C\[C@@H]1CCNC1)/c1cncnc1.O=C(O)[C@@H](O)[C@H](O)[C@H](O)[C@@H](O)C(=O)O`, the Emax in assay [3] was 133%; in assay [5], 48%; in assay [10], 97%. Besides, the EC50 in [4] was 161 µM; in assay [8], 0.53 µM; in assay [9], 19 µM. For the same compound, the values for the Ki in assay [6], in assay [7] and in assay [11] were > 10 µM, 0.325 µM and 0.024 µM, respectively. For the same compound, the results for the “Ratio EC50” value in [1] and in assay [2] were 304 and 8.5, respectively.

As to `c1cncc(C2CC3CCN2CC3)c1` (stereo not given), the Emax in [3] turned out to be 29%.

For `O=C(O)C(F)(F)F.c1ncc(C2CC3CCN2CC3)cn1` (stereo not given), the Emax is 43% in assay [3], 104% in assay [5] and 95% in assay [10]. The EC50 amounted to 2.4 µM in [4], 0.09 µM in assay [8] and 0.45 µM in assay [9]. Also, the inhibitory constant (Ki) was 1.1 µM in [6], 0.008 µM in assay [7] and 0.0018 µM in assay [11]. Besides, the “Ratio EC50” value in assay [1] worked out at 26.7; in assay [2], 5.3.

For the compound `c1cncc(CC2CC3CCN2CC3)c1` (stereo not given), in [5], the Imax worked out at 96%.

Regarding `C(=C\[C@@H]1CCNC1)/c1cccnc1.O=C(O)C(F)(F)F`, the Emax in assay [3] was 109%; in assay [5] it was 66%; in assay [10] it was 58%. Also, the EC50 in [4] was determined as 16 µM; in assay [8] it was 0.8 µM; in [9] it was 4.4 µM. The Ki amounted to 3.16 µM in assay [6], 0.184 µM in assay [7] and 0.011 µM in assay [11]. In addition, the “Ratio EC50” value in [1] is on record as 20; in [2], 3.6.

Regarding `CN1C2C=C(c3cncnc3)CC1CC2.O=C(O)C(F)(F)F` (stereo not given), the maximal response (Emax) was 45% in assay [3], 77% in assay [5] and 35% in [10]. In addition, the EC50 in [4] came to 41 µM; in [8], 0.1 µM; in [9], 1.8 µM. Further, the values for the Ki in [6], in assay [7] and in assay [11] were 9.1 µM, 0.017 µM and 0.0012 µM, respectively. The “Ratio EC50” value in [1] was 410; in assay [2], 22.7.

On to `O=C(O)C(F)(F)F.c1ncc(CC2CC3CCN2CC3)cn1` (stereo not given), for which the Imax turned out to be 92% in [3] and 91% in assay [5]. For the same compound, the EC50 in [4] came out at 28 µM. Further, the figures for the Ratio in assay [12] and in [14] were 11.2 and 87.5, respectively. Moreover, the Ki in assay [13] was determined as 2.5 µM; in [6], 2.59 µM; in assay [7], 0.115 µM; in assay [11] it was 0.059 µM. In addition, the Emax in assay [10] was 106%.

For `CN1C2C=C(c3cccnc3)CC1CC2.Cl.Cl` (stereo not given), the results for the Emax in assay [3], in assay [5] and in [10] were 75%, 50% and 71%, respectively. Moreover, the EC50 in assay [4] was determined as 21 µM; in assay [8] it was 0.2 µM; in [9], 3.4 µM. Also, the Ki in assay [6] was 2.11 µM; in assay [7] it was 0.055 µM; in assay [11], 0.0098 µM. For the same compound, the results for the “Ratio EC50” value in assay [1] and in assay [2] were 105 and 6.2, respectively.

Regarding `CNCC/C=C/c1cccnc1.O=C(O)[C@@H](O)[C@H](O)[C@H](O)[C@@H](O)C(=O)O`, the Emax in assay [3] was 122%; in assay [5], 0%; in [10], 45%. The results for the concentration giving a half-maximal response (EC50) in assay [4], in [15] and in assay [9] were 218 µM, “Not Active” and 8.3 µM, respectively. Also, the Ki is > 10 µM in assay [6], 1.55 µM in [7] and 0.025 µM in assay [11]. For the same compound, the “Ratio EC50” value in assay [2] stood at 26.

As to `CNCC/C=C/c1cncnc1.O=C(O)[C@@H](O)[C@H](O)[C@H](O)[C@@H](O)C(=O)O`, the Emax is 73% in assay [3], 80% in assay [5] and 4% in [10]. Further, the EC50 in assay [4] is 9.5 µM; in assay [8] it was 37 µM; in assay [9], 5.9 µM. The figures for the Ki in assay [6], in assay [7] and in assay [11] were > 10 µM, 1.06 µM and 0.069 µM, respectively. For the same compound, the “Ratio EC50” value in assay [1] amounted to 0.26; in [2], 1.6.

Turning to `C(#C[C@H]1CCCN1)c1cncnc1`, the Emax in assay [3] was determined as 64%; in assay [5], 134%; in assay [10], 74%. In addition, the EC50 turned out to be 34 µM in assay [4], 1.2 µM in assay [8] and 3.2 µM in assay [9]. For the same compound, the results for the Ki in [6], in assay [7] and in [11] were 5.77 µM, 0.34 µM and 0.03 µM, respectively.

For the compound `C(#C[C@H]1CCCN1)c1cccnc1.O=C(O)[C@@H](O)[C@H](O)[C@H](O)[C@@H](O)C(=O)O`, the Emax worked out at 120% in assay [3], 42% in [5] and 81% in assay [10]. In addition, the EC50 in assay [4] stood at 5.6 µM; in assay [8] it was 0.7 µM; in assay [9], 13 µM. For the same compound, the Ki in assay [6] was 0.733 µM; in assay [7], 0.242 µM; in assay [11] it was 0.02 µM. Moreover, the “Ratio EC50” value in assay [1] is on record as 8; in assay [2], 0.4.
